Experimental findings from PMC8997399, “High-Throughput Screening to Identify Inhibitors of Plasmodium falciparum Importin α” (Cells, 2022) are described below.

Data set [1] has as its system T. gondii RH strain expressing the luciferase reporter (RH-Fluc). In words: T. gondii tachyzoite growth inhibition assay (RH-Fluc luciferase). Conditions: Toxoplasma gondii. It counts as cell-based, Toxoplasma gondii. An excerpt:
T. gondii RH strain expressing the luciferase reporter (RH-Fluc) was derived to assess the effect of the inhibitors on growth. Briefly, plasmid pCTG-EGFP [42] was modified by replacing the coding sequence of EGFP with that of the firefly luciferase reporter, using restriction enzymes BglII and PstI (Thermo Fisher Scientific, Waltham, MA, USA). The resultant plasmid, pCTG-Fluc, expressing firefly luciferase constitutively under the control of the T. gondii TubulinA promoter, was electroporated into the T. gondii RH strain [43, 44] using a Bio-Rad GenePulser Xcell system (1500 V, 50 Ω and 25 µF) along with restriction enzyme NotI to initiate RE-Mediated Integration (REMI) of the linearized plasmid into the genome. The resultant stable T. gondii line expressing the luciferase reporter was selected for resistance to 20 µM chloramphenicol (encoded by the plasmid pCTG), and dilution cloning was performed to ultimately identify the clone (RH-Fluc) with the highest luciferase activity (c. 4 × 10^7 RLU from 10^7 parasites) used for growth assays. T. gondii tachyzoites were maintained and cultured at 37 °C in 5% CO2 in a humidified incubator in primary human foreskin fibroblasts (HFF, ATCC); HFF cells were maintained in Dulbecco’s modified Eagle medium (DMEM) (Gibco^TM, Waltham, MA, USA) supplemented with 3.7 g/L sodium bicarbonate and 2.38 g/L HEPES, 10% Cosmic Calf serum (Hyclone^TM, Logan, UT, USA) and 20 mg/L gentamicin [47, 48].
Growth inhibition was assessed by luminescence measurements as described. Briefly, 100 μL of culture medium with or without inhibitors was added to confluent monolayers of HFF cells grown in 96-well treated culture plates (Eppendorf, Hamburg, Germany), followed by 100 µL of DMEM containing 5000 parasites. After 48 h, 150 µL of the culture media was discarded from each well without aspirating any parasites, and 10 µL lysis buffer was added to lyse the parasites, followed by 50 μL of 2× luciferase assay reagent (Promega, Madison, WI, USA). Luminescence was measured directly for 10 s using a Varioskan™ LUX multimode microplate reader (Thermo Fisher Scientific, Waltham, MA, USA).

A short description of data set [2]: MTT assay for host cell cytotoxicity. It counts as cell-based, human. Conditions: human, HFF cells; MTT assay, 48 h; mean ± SD (n = 2). The method, then: The MTT assay was used to measure the cytotoxicity of the small molecules against the HFF cells as described. Briefly, freshly confluent HFF cells in a 96-well culture plate were treated with increasing concentrations of compounds for 48 h, prior to the MTT assay.

Where two headings read alike, the source gives them in different places. Bounds are passed on as bounds.

The IC50 is the midpoint of a concentration-inhibition curve. The CC50 is the concentration at which the toxic effect on the cells reaches its halfway point. A higher CC50 goes with better tolerance by the cells. As for `CCc1nc(N)nc(N)c1-c1ccc(Cl)cc1` [pyrimethamine], the IC50 was determined as 500 ± 100 nM in data set [1] (Table S1, mean ± SEM (n = 3), read-out: IC50 T. gondii tachyzoites) and 460 ± 140 nM in data set [1] (parasites in culture, 48 h, pooled, mean ± SD (n = 3) (Table 3), read-out: IC50 T. gondii). For the same compound, the CC50 at 48 h in data set [2] is above 10000 nM.
